Data taken from ChEMBL document CHEMBL4257475, “Identification of non-substrate-like glycosyltransferase inhibitors from library screening: pitfalls & hits” (Medchemcomm, 2018).
Activity calls are given as the source filed them. No cut-off for these calls is given here.

Assays:
[1] = biological target: T1, LgtC (Neisseria meningitidis) (UniProt Q93EK7); assay: Inhibition of Neisseria meningitidis LgtC at 50 uM using UDP-Gal donor substrate incubated for 20 mins by malachite green reagent based colorimetric method relative to control
T1 sequence (whole entry): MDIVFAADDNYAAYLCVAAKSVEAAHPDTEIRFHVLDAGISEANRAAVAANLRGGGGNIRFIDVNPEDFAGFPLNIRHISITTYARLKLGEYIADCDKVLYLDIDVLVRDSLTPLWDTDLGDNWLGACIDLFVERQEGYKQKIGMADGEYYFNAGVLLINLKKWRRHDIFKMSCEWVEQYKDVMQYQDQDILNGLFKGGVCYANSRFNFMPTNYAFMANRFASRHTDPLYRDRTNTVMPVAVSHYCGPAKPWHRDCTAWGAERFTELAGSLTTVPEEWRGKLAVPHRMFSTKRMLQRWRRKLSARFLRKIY

[2] = biological target: T1, LgtC (Neisseria meningitidis); assay: (§1) Inhibition of Neisseria meningitidis LgtC using UDP-Gal donor substrate incubated for 20 mins by malachite green reagent based colorimetric method
[3] = biological target: Intestinal-type alkaline phosphatase (Bos taurus) (UniProt P19111); assay: Inhibition of calf intestinal phosphatase up to 100 uM using UDP as substrate measured after 20 mins by malachite green reagent based colorimetric method
Sequence of Intestinal-type alkaline phosphatase (Bos taurus) (P19111 20-506 limits assumed): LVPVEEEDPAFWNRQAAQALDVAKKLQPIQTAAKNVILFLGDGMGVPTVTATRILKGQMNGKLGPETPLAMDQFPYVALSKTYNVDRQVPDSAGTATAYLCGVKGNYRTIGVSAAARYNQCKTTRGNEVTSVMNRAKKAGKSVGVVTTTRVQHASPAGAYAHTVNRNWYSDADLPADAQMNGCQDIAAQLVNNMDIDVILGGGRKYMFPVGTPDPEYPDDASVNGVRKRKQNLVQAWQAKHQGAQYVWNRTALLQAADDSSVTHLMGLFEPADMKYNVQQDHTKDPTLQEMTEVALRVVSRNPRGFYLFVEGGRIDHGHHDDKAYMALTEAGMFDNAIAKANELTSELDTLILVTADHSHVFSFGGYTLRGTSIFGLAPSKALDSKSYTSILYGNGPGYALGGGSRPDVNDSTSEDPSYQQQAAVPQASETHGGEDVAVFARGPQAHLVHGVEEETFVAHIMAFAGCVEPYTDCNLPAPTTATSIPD

[4] = Effect on inorganic phosphate reaction with malachite green reagent at 1 mM after 20 mins by colorimetric method; type: functional
[5] = biological target: T1, LgtC (Neisseria meningitidis); assay: Inhibition of Neisseria meningitidis LgtC at 100 uM using UDP-Gal donor substrate incubated for 20 mins by malachite green reagent based colorimetric method relative to control
[6] = biological target: T1, LgtC (Neisseria meningitidis); assay: Inhibition of Neisseria meningitidis LgtC at 100 uM using UDP-Gal donor substrate incubated for 20 mins followed by 5 fold dilution by malachite green reagent based colorimetric method relative to control
LgtC = biological target: T2, LgtC (Neisseria meningitidis, UniProt Q93EK7); assay: as §1
T2 sequence (Q93EK7 whole entry): T1 sequence (whole entry)

[7] = Effect on inorganic phosphate reaction with malachite green reagent up to 100 uM after 20 mins by colorimetric method; type: functional
Pasteurella multocida = assay: Inhibition of recombinant Pasteurella multocida alpha-(2,3)-sialyltransferase expressed in Escherichia coli BL21 up to 100 uM using CMP-Neu5Ac donor substrate incubated for 20 mins by malachite reagent based colorimetric method
[8] = biological target: T3, Galactoside alpha-(1,2)-fucosyltransferase 2 (Homo sapiens) (UniProt Q10981); assay: Inhibition of recombinant human C-terminal His6-tagged FUT2 (Ile35 to His343 residues) expressed in HEK293 cells at 100 uM using GDP-Fuc donor substrate measured after 20 mins by malachite green reagent based colorimetric method; type: cell-based
T3 sequence (whole entry): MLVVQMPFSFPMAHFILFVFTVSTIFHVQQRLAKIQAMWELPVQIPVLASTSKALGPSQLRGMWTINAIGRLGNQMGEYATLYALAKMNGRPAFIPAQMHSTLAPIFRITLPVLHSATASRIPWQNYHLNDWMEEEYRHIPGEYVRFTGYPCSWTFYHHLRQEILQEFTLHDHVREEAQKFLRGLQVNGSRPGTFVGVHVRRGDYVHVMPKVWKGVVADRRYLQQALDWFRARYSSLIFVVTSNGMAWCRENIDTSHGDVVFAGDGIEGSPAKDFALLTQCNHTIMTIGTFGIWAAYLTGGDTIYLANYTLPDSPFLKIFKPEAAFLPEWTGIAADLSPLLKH

Row | inhibition [1] | Structure (SMILES) | other results
1 | inactive | CC1=NN(c2ccccc2)C(=O)/C1=C\c1cccc(C)c1 | 
2 | inactive | CC1=NN(c2ccccc2)C(=O)/C1=C\c1ccc(Cl)cc1 | 
3 | inactive | CC1=NN(c2ccccc2)C(=O)/C1=C\c1cccnc1 | 
4 | inactive | CC1=NN(c2ccccc2)C(=O)/C1=C\c1ccc(C)cc1 | 
5 | inactive | CCOC(=O)c1cccc(N2N=C(C)/C(=C/c3ccncc3)C2=O)c1 | 
6 | 34% | CC(=O)O[C@H]1C[C@@H]2CC[C@@H]3[C@H](CC[C@@]4(C)[C@H]3C[C@H]([N+]3(C)CCCCC3)[C@@H]4OC(C)=O)[C@@]2(C)C[C@@H]1N1CCCCC1 | inhibition [2]: Dose-dependent effect; inhibition [3]: Active; Activity [4]: Active
7 |  | CC1=NN(c2ccccc2)C(=O)/C1=C\c1ccccc1C(F)(F)F | inhibition [5]: 60%; inhibition [6]: 60%
8 | inactive | CC1=NN(c2ccccc2)C(=O)/C1=C\c1cccc(O)c1 | 
9 | inactive | CC1=NN(c2ccccc2)C(=O)/C1=C\c1cc(C(F)(F)F)ccc1C(F)(F)F | 
10 | > 10% | CC1=NN(c2ccccc2)C(=O)/C1=C\c1ccccc1Cl | IC50 (LgtC): 33 µM
11 | inactive | CC1=NN(c2ccccc2)C(=O)/C1=C\c1ccncc1 | 
12 | inactive | CC1=NN(c2ccccc2)C(=O)/C1=C\c1cccc([N+](=O)[O-])c1 | 
13 | inactive | CC1=NN(c2ccccc2)C(=O)/C1=C\c1cccc(OCc2ccccc2)c1 | 
14 | inactive | COc1cc(/C=C2\C(=O)N(c3cccc(C(=O)O)c3)N=C2C)cc(OC)c1O | 
15 | inactive | CC1=NN(c2ccccc2)C(=O)/C1=C\c1ccc(S(C)(=O)=O)cc1 | 
16 | > 10% | CC1=NN(c2ccccc2)C(=O)/C1=C\c1ccccc1C | inhibition [2]: Dose-dependent effect; IC50 (LgtC): 30 µM; inhibition [3]: inactive; Activity [7]: inactive; inhibition (Pasteurella multocida): inactive; inhibition [8]: Active
17 | inactive | CC1=NN(c2ccccc2)C(=O)/C1=C\c1ccc(C#N)cc1 | 
18 | 10% | CC1=NN(c2ccccc2)C(=O)/C1=C\c1ccccc1O | 
19 | inactive | CCOC(=O)c1cccc(N2N=C(C)/C(=C/C3CCN(C(=O)OC(C)(C)C)CC3)C2=O)c1 | 
20 | inactive | CC1=NN(c2ccccc2)C(=O)/C1=C\c1ccc(O)cc1 | 
21 | inactive | COc1ccc2occ(/C=C3\C(=O)N(c4cccc(C(=O)O)c4)N=C3C)c(=O)c2c1 | 
22 | inactive | CC1=NN(c2ccccc2)C(=O)/C1=C\c1ccco1 | 

Row | Structure (SMILES) | inhibition [1] | other results
23 | CC(=O)O[C@H]1C[C@@H]2CC[C@@H]3[C@H](CC[C@@]4(C)[C@H]3C[C@H]([N+]3(C)CCCCC3)[C@@H]4OC(C)=O)[C@@]2(C)C[C@@H]1[N+]1(C)CCCCC1 | 38% | inhibition [2]: Dose-dependent effect; inhibition [3]: Active; Activity [4]: Active
